The assay deals with human PDE10A2 (Homo sapiens (Human), UniProt Q9Y233). Nature of the assay: PDE10 fluorescence polarization (IMAP FP) inhibition assay. The class given is biochemical. The conditions noted are these: human PDE10A2 from transfected AD293 cells; FAM-labeled cAMP 50 nM; apparent inhibition constant; read-out: PDE10A Ki. Here is the method: The activity of the compounds in accordance with the present invention as PDE10 inhibitors may be readily determined without undue experimentation using a fluorescence polarization (FP) methodology that is well known in the art (Huang, W., et al., J. Biomol Screen, 2002, 7: 215).
In a typical experiment the PDE10 inhibitory activity of the compounds of the present invention was determined in accordance with the following experimental method. PDE10A2 was amplified from human fetal brain cDNA (Clontech, Mountain View, Calif.) using a forward primer corresponding to nucleotides 56-77 of human PDE10A2 (Accession No. AF127480, Genbank Identifier 4894716), containing a Kozak consensus sequence, and a reverse primer corresponding to nucleotides 2406-2413 of human PDE10A2 (Accession No. AF127480, Genbank Identifier 4894716). Amplification with Easy-A polymerase (Stratagene, La Jolla, Calif.) was 95° C. for 2 minutes followed by thirty three cycles of 95° C. for 40 seconds, 55° C. for 30 seconds, and 72° C. for 2 minutes 48 seconds. Final extension was 72° C. for 7 minutes. The PCR product was TA cloned into pcDNA3.2-TOPO (Invitrogen, Carlsbad, Calif.) according to standard protocol. AD293 cells with 70-80% confluency were transiently transfected with human PDE10A2/pcDNA3.2-TOPO using Lipofectamine 2000 according to manufacturer specifications (Invitrogen, Carlsbad, Calif.). Cells were harvested 48 hours post-transfection and lysed by sonication (setting 3, 10×5 sec pulses) in a buffer containing 20 mM HEPES, 1 mM EDTA and protease inhibitor cocktail (Roche). Lysate was collected by centrifugation at 75,000×g for 20 minutes. Supernatant containing the cytoplasmic fraction was used for evaluation of PDE10A2 activity. The fluorescence polarization assay for cyclic nucleotide phosphodiesterases was performed using an IMAP® FP kit supplied by Molecular Devices, Sunnyvale, Calif. (product # R8139). IMAP® technology has been applied previously to phosphodiesterase assays (Huang, W., et al., J. Biomol Screen, 2002, 7: 215). Assays were performed at room temperature in 384-well microtiter plates with an incubation volume of 20.2 μL. Solutions of test compounds were prepared in DMSO and serially diluted with DMSO to yield 8 μL of each of 10 solutions differing by 3-fold in concentration, at 32 serial dilutions per plate. […] 0% of inhibition is determined by using DMSO (1% final concentrations).
A Labcyte Echo 555 (Labcyte, Sunnyvale, Calif.) is used to dispense 200 nL from each well of the titration plate to the 384 well assay plate. A solution of enzyme (1/1600 dilution from aliquots; sufficient to produce 20% substrate conversion) and a separate solution of FAM-labeled cAMP PDE from Molecular Devices (product # R7506), at a final concentration of 50 nM are made in the assay buffer (10 mM Tris HCl, pH 7.2, 10 mM MgCl2, 0.05% NaN3 0.01% Tween-20, and 1 mM DTT). The enzyme and the substrate are then added to the assay plates in two consecutive additions of 10 μL, and then shaken to mix. The reaction is allowed to proceed at room temperature for 30 minutes. […] The enzymatic reaction is stopped by addition of 60 μL of the binding solution to each well of the assay plates and the plates are sealed and shaken for 10 seconds. The plate was incubated at room temperature for at least one hour prior to determining the fluorescence polarization (FP). The parallel and perpendicular fluorescence of each well of the plate was measured using a Perkin Elmer EnVision™ plate reader (Waltham, Mass.).
Fluorescence polarization (mP) was calculated from the parallel (S) and perpendicular (P) fluorescence of each sample well and the analogous values for the median control well, containing only substrate (So and Po), using the following equation: Polarization(mP)=1000*(S/So−P/Po)/(S/So+P/Po).
Dose-inhibition profiles for each compound were characterized by fitting the mP data to a four-parameter equation given below.

human PDE10A2, sequence (Q9Y233 267-1055): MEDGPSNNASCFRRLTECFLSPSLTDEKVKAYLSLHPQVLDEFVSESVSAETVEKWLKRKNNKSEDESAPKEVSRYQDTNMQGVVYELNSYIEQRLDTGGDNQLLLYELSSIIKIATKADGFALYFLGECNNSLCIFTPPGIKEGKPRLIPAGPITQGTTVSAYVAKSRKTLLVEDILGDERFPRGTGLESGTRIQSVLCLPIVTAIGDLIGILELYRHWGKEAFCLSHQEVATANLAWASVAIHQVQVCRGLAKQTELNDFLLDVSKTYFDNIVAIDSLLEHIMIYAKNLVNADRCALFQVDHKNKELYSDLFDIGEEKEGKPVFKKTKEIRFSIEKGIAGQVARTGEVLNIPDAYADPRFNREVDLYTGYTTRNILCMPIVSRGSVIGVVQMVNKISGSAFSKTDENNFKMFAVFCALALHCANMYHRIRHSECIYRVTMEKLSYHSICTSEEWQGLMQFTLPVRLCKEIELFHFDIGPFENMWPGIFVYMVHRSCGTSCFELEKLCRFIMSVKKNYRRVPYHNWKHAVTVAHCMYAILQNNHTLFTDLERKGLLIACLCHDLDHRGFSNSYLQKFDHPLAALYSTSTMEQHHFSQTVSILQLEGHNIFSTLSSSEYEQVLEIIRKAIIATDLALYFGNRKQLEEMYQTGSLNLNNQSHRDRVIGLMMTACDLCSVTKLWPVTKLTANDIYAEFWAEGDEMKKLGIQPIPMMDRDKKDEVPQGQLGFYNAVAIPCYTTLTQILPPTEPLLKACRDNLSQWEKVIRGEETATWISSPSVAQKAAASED

As for `COc1ccc([C@H]2C[C@@H]2COc2nc(C)ncc2-c2cnc(C(C)(C)O)cn2)nc1` [Example 66, 2-(5-(4-(((1S,2S)-2-(5-methoxypyridin-2-yl)cyclopropyl)methoxy)-2-methylpyrimidin-5-yl)pyrazin-2-yl)propan-2-ol], the Ki came out at 3.14 nM. The same measure for `COc1ccc([C@H]2C[C@@H]2COc2nc(C)ncc2-c2ccc(O)nc2)nc1` [Example 69, 5-(4-(((1S,2S)-2-(5-methoxypyridin-2-yl)cyclopropyl)methoxy)-2-methylpyrimidin-5-yl)pyridin-2-ol]: 0.94 nM; for `COc1ccc([C@H]2C[C@@H]2COc2nc(C)ncc2-c2cnc(O)nc2)nc1` [Example 70, 4′-(((1S,2S)-2-(5-methoxypyridin-2-yl)cyclopropyl)methoxy)-2′-methyl-5,5′-bipyrimidin-2-ol]: 1.64 nM. As to `COc1ccc([C@H]2C[C@@H]2COc2nc(C)ncc2-c2ccc(OC(CO)CO)nc2)nc1` [Example 71, 2-(5-(4-(((1S,2S)-2-(5-methoxypyridin-2-yl)cyclopropyl)methoxy)-2-methylpyrimidin-5-yl)pyridin-2-yloxy)propane-1,3-diol], the Ki was determined as 4.78 nM. The same measure for `COc1ccc([C@H]2C[C@@H]2COc2nc(C)ncc2-c2ccc(OCC3CC3)nc2)nc1` [Example 72, 5-(6-(cyclopropylmethoxy)pyridin-3-yl)-4-(((1S,2S)-2-(5-methoxypyridin-2-yl)cyclopropyl)methoxy)-2-methylpyrimidine]: 0.5 nM; for `COc1ccc([C@H]2C[C@@H]2COc2nc(C)ncc2-c2cnsc2)nc1` [Example 73, 4-(4-(((1S,2S)-2-(5-methoxypyridin-2-yl)cyclopropyl)methoxy)-2-methylpyrimidin-5-yl)isothiazole]: 1.13 nM; for `COc1ccc([C@H]2C[C@@H]2COc2nc(C)ncc2-c2ccnc(OC(C)C)c2)nc1` [Example 74, 5-(2-isopropoxypyridin-4-yl)-4-(((1S,2S)-2-(5-methoxypyridin-2-yl)cyclopropyl)methoxy)-2-methylpyrimidine]: 0.18 nM. The same measure for `CCOc1cc(-c2cnc(C)nc2OC[C@H]2C[C@@H]2c2ccc(OC)cn2)ccn1` [Example 75, 5-(2-ethoxypyridin-4-yl)-4-(((1S,2S)-2-(5-methoxypyridin-2-yl)cyclopropyl)methoxy)-2-methylpyrimidine]: 0.14 nM; for `COc1ccc([C@H]2C[C@@H]2COc2nc(C)ncc2C2=CC(=O)CC2)nc1` [Example 76, 3-(4-(((1S,2S)-2-(5-methoxypyridin-2-yl)cyclopropyl)methoxy)-2-methylpyrimidin-5-yl)cyclopent-2-enone]: 0.48 nM; for `COc1ccc([C@H]2C[C@@H]2COc2nc(C)ncc2C2=CC(=O)CC2)nc1` [Example 77, 3-(4-(((1S,2S)-2-(5-methoxypyridin-2-yl)cyclopropyl)methoxy)-2-methylpyrimidin-5-yl)cyclopent-2-enone]: 6.28 nM. The same measure for `COc1ccc([C@H]2C[C@@H]2COc2nc(C)ncc2C2CCC(=O)C2)nc1` (some centres unmarked) [Example 78]: 8.35 nM; for `COc1ccc([C@H]2C[C@@H]2COc2nc(C)ncc2[C@H]2CC[C@@H](O)C2)nc1` [Example 79, (1R,3S)-3-(4-(((1S,2S)-2-(5-methoxypyridin-2-yl)cyclopropyl)methoxy)-2-methylpyrimidin-5-yl)cyclopentanol]: 5.6 nM; for `COc1ccc([C@H]2C[C@@H]2COc2nc(C)ncc2[C@@H]2CC[C@@H](O)C2)nc1` [Example 80, (1R,3R)-3-(4-(((1S,2S)-2-(5-methoxypyridin-2-yl)cyclopropyl)methoxy)-2-methylpyrimidin-5-yl)cyclopentanol]: 5.48 nM. Take `COc1ccc([C@H]2C[C@@H]2COc2nc(C)ncc2-c2ccc(Br)cc2)nc1` [Example 81, 5-(4-bromophenyl)-4-(((1S,2S)-2-(5-methoxypyridin-2-yl)cyclopropyl)methoxy)-2-methylpyrimidine]: the Ki is 4.97 nM.

These data come from US9663513B2, “Pyrimidine PDE10 inhibitors” (Merck Sharp & Dohme Corp., priority 2012, dated 2017).
